# In the NIST ThermoML archive (doi:10.1021/acs.jced.8b00132):
# Where “and” joins values, the source holds several entries; their conditions need not be identical. Identical values can stand only once. Numbers after ± are expanded uncertainties.
smiles,measurement,setting,value
O=C(C(F)(F)C(F)(F)F)C(F)(C(F)(F)F)C(F)(F)F [dodecafluoro-2-methylpentan-3-one],thermal conductivity,"359.78 K, 24942 kPa, Liquid, transient hot wire",0.06009 ± 0.0012 W/m/K
same,thermal conductivity,"359.79 K, 91 kPa, Gas, transient hot wire",0.01762 ± 0.0011 W/m/K
same,thermal conductivity,"359.79 K, 92 kPa, Gas, transient hot wire",0.01704 ± 0.001 W/m/K
same,thermal conductivity,"359.83 K, 255 kPa, Gas, transient hot wire",0.01639 ± 0.001 W/m/K and 0.01638 ± 0.001 W/m/K
same,thermal conductivity,"359.85 K, 7097 kPa, Liquid, transient hot wire",0.05177 ± 0.0011 W/m/K
same,thermal conductivity,"359.85 K, 7099 kPa, Liquid, transient hot wire",0.05171 ± 0.0011 W/m/K
same,thermal conductivity,"359.89 K, 18005 kPa, Liquid, transient hot wire",0.05715 ± 0.0012 W/m/K
same,thermal conductivity,"359.9 K, 18006 kPa, Liquid, transient hot wire",0.05719 ± 0.0012 W/m/K
same,thermal conductivity,"359.92 K, 186 kPa, Gas, transient hot wire",0.01654 ± 0.001 W/m/K and 0.01651 ± 0.001 W/m/K
same,thermal conductivity,"359.92 K, 3418 kPa, Liquid, transient hot wire",0.04946 ± 0.001 W/m/K
same,thermal conductivity,"359.93 K, 3420 kPa, Liquid, transient hot wire",0.04957 ± 0.001 W/m/K
same,thermal conductivity,"359.99 K, 11963 kPa, Liquid, transient hot wire",0.05432 ± 0.0011 W/m/K
same,thermal conductivity,"360 K, 26 kPa, Gas, transient hot wire",0.01679 ± 0.001 W/m/K
same,thermal conductivity,"360.01 K, 26 kPa, Gas, transient hot wire",0.01682 ± 0.001 W/m/K
same,thermal conductivity,"360.01 K, 11965 kPa, Liquid, transient hot wire",0.05404 ± 0.0011 W/m/K
same,thermal conductivity,"360.03 K, 353 kPa, Liquid, transient hot wire",0.0473 ± 0.00099 W/m/K
same,thermal conductivity,"360.04 K, 353 kPa, Liquid, transient hot wire",0.0473 ± 0.00099 W/m/K
same,thermal conductivity,"360.05 K, 352 kPa, Liquid, transient hot wire",0.04729 ± 0.00099 W/m/K and 0.0475 ± 0.00099 W/m/K
same,thermal conductivity,"360.09 K, 92 kPa, Gas, transient hot wire",0.01711 ± 0.0011 W/m/K and 0.01617 ± 0.001 W/m/K
same,thermal conductivity,"360.11 K, 7096 kPa, Liquid, transient hot wire",0.05168 ± 0.0011 W/m/K
same,thermal conductivity,"360.11 K, 7097 kPa, Liquid, transient hot wire",0.0517 ± 0.0011 W/m/K
same,thermal conductivity,"360.19 K, 3417 kPa, Liquid, transient hot wire",0.04945 ± 0.001 W/m/K
same,thermal conductivity,"360.19 K, 3421 kPa, Liquid, transient hot wire",0.04947 ± 0.001 W/m/K
same,thermal conductivity,"360.32 K, 353 kPa, Liquid, transient hot wire",0.0473 ± 0.00099 W/m/K
same,thermal conductivity,"360.33 K, 352 kPa, Liquid, transient hot wire",0.0473 ± 0.00099 W/m/K and 0.04729 ± 0.00099 W/m/K
same,thermal conductivity,"360.33 K, 353 kPa, Liquid, transient hot wire",0.04728 ± 0.00098 W/m/K
same,thermal conductivity,"360.34 K, 26 kPa, Gas, transient hot wire",0.01682 ± 0.001 W/m/K and 0.01675 ± 0.001 W/m/K
same,thermal conductivity,"373.92 K, 307 kPa, Gas, hot wire",0.01816 ± 0.00086 W/m/K
same,thermal conductivity,"373.92 K, 308 kPa, Gas, hot wire",0.01812 ± 0.00086 W/m/K
same,thermal conductivity,"373.97 K, 206 kPa, Gas, hot wire",0.01727 ± 0.00081 W/m/K
same,thermal conductivity,"373.97 K, 207 kPa, Gas, hot wire",0.0173 ± 0.00081 W/m/K
same,thermal conductivity,"374 K, 102 kPa, Gas, hot wire",0.01713 ± 0.00081 W/m/K and 0.01722 ± 0.00081 W/m/K
same,thermal conductivity,"374.03 K, 306 kPa, Gas, hot wire",0.01829 ± 0.00087 W/m/K and 0.01823 ± 0.00086 W/m/K
same,thermal conductivity,"374.08 K, 25 kPa, Gas, hot wire",0.01652 ± 0.00078 W/m/K and 0.01647 ± 0.00078 W/m/K
same,thermal conductivity,"374.1 K, 205 kPa, Gas, hot wire",0.01731 ± 0.00082 W/m/K
same,thermal conductivity,"374.1 K, 206 kPa, Gas, hot wire",0.01733 ± 0.00082 W/m/K
same,thermal conductivity,"374.14 K, 102 kPa, Gas, hot wire",0.01694 ± 0.0008 W/m/K and 0.01695 ± 0.0008 W/m/K
same,thermal conductivity,"374.15 K, 305 kPa, Gas, hot wire",0.01837 ± 0.00087 W/m/K
same,thermal conductivity,"374.17 K, 305 kPa, Gas, hot wire",0.01816 ± 0.00086 W/m/K
same,thermal conductivity,"374.21 K, 25 kPa, Gas, hot wire",0.01648 ± 0.00078 W/m/K
same,thermal conductivity,"374.22 K, 25 kPa, Gas, hot wire",0.01645 ± 0.00078 W/m/K
same,thermal conductivity,"374.23 K, 205 kPa, Gas, hot wire",0.0174 ± 0.00082 W/m/K and 0.01741 ± 0.00082 W/m/K
same,thermal conductivity,"374.28 K, 102 kPa, Gas, hot wire",0.01696 ± 0.0008 W/m/K
same,thermal conductivity,"374.28 K, 304 kPa, Gas, hot wire",0.01841 ± 0.00087 W/m/K
same,thermal conductivity,"374.28 K, 305 kPa, Gas, hot wire",0.01852 ± 0.00088 W/m/K
same,thermal conductivity,"374.29 K, 102 kPa, Gas, hot wire",0.01693 ± 0.0008 W/m/K
same,thermal conductivity,"374.35 K, 25 kPa, Gas, hot wire",0.01656 ± 0.00078 W/m/K and 0.01653 ± 0.00078 W/m/K
same,thermal conductivity,"374.36 K, 203 kPa, Gas, hot wire",0.01755 ± 0.00083 W/m/K
same,thermal conductivity,"374.37 K, 204 kPa, Gas, hot wire",0.01751 ± 0.00083 W/m/K
same,thermal conductivity,"374.42 K, 102 kPa, Gas, hot wire",0.01695 ± 0.0008 W/m/K
same,thermal conductivity,"374.42 K, 303 kPa, Gas, hot wire",0.01848 ± 0.00088 W/m/K and 0.01842 ± 0.00087 W/m/K
same,thermal conductivity,"374.43 K, 102 kPa, Gas, hot wire",0.01693 ± 0.0008 W/m/K
same,thermal conductivity,"374.49 K, 376 kPa, Gas, transient hot wire",0.01734 ± 0.0011 W/m/K
same,thermal conductivity,"374.5 K, 25 kPa, Gas, hot wire",0.01656 ± 0.00078 W/m/K and 0.01659 ± 0.00078 W/m/K
same,thermal conductivity,"374.5 K, 377 kPa, Gas, transient hot wire",0.01734 ± 0.0011 W/m/K
same,thermal conductivity,"374.51 K, 202 kPa, Gas, hot wire",0.0176 ± 0.00083 W/m/K
same,thermal conductivity,"374.51 K, 203 kPa, Gas, hot wire",0.01762 ± 0.00083 W/m/K
same,thermal conductivity,"374.52 K, 308 kPa, Gas, transient hot wire",0.01738 ± 0.0011 W/m/K
same,thermal conductivity,"374.53 K, 307 kPa, Gas, transient hot wire",0.01737 ± 0.0011 W/m/K
same,thermal conductivity,"374.58 K, 101 kPa, Gas, hot wire",0.01698 ± 0.0008 W/m/K
same,thermal conductivity,"374.59 K, 101 kPa, Gas, hot wire",0.01691 ± 0.0008 W/m/K
same,thermal conductivity,"374.59 K, 207 kPa, Gas, transient hot wire",0.01758 ± 0.0011 W/m/K
same,thermal conductivity,"374.6 K, 206 kPa, Gas, transient hot wire",0.01761 ± 0.0011 W/m/K
same,thermal conductivity,"374.66 K, 25 kPa, Gas, hot wire",0.0166 ± 0.00078 W/m/K and 0.01657 ± 0.00078 W/m/K
same,thermal conductivity,"374.69 K, 376 kPa, Gas, transient hot wire",0.01733 ± 0.0011 W/m/K
same,thermal conductivity,"374.7 K, 376 kPa, Gas, transient hot wire",0.01734 ± 0.0011 W/m/K
same,thermal conductivity,"374.74 K, 306 kPa, Gas, transient hot wire",0.01741 ± 0.0011 W/m/K
same,thermal conductivity,"374.81 K, 206 kPa, Gas, transient hot wire",0.01763 ± 0.0011 W/m/K and 0.01767 ± 0.0011 W/m/K
same,thermal conductivity,"374.92 K, 374 kPa, Gas, transient hot wire",0.01739 ± 0.0011 W/m/K
same,thermal conductivity,"374.92 K, 375 kPa, Gas, transient hot wire",0.01742 ± 0.0011 W/m/K
same,thermal conductivity,"374.97 K, 305 kPa, Gas, transient hot wire",0.0175 ± 0.0011 W/m/K
same,thermal conductivity,"374.97 K, 306 kPa, Gas, transient hot wire",0.01752 ± 0.0011 W/m/K
same,thermal conductivity,"375.05 K, 205 kPa, Gas, transient hot wire",0.01769 ± 0.0011 W/m/K
same,thermal conductivity,"375.15 K, 373 kPa, Gas, transient hot wire",0.01743 ± 0.0011 W/m/K
same,thermal conductivity,"375.15 K, 374 kPa, Gas, transient hot wire",0.01735 ± 0.0011 W/m/K
same,thermal conductivity,"375.2 K, 304 kPa, Gas, transient hot wire",0.01738 ± 0.0011 W/m/K
same,thermal conductivity,"375.21 K, 304 kPa, Gas, transient hot wire",0.01741 ± 0.0011 W/m/K
same,thermal conductivity,"375.3 K, 204 kPa, Gas, transient hot wire",0.01791 ± 0.0011 W/m/K and 0.0176 ± 0.0011 W/m/K
same,thermal conductivity,"375.4 K, 372 kPa, Gas, transient hot wire",0.01754 ± 0.0011 W/m/K
same,thermal conductivity,"375.4 K, 373 kPa, Gas, transient hot wire",0.01755 ± 0.0011 W/m/K
same,thermal conductivity,"375.47 K, 303 kPa, Gas, transient hot wire",0.01756 ± 0.0011 W/m/K
same,thermal conductivity,"375.48 K, 303 kPa, Gas, transient hot wire",0.01757 ± 0.0011 W/m/K
same,thermal conductivity,"375.57 K, 202 kPa, Gas, transient hot wire",0.01755 ± 0.0011 W/m/K
